Reference: patent US7790899B2, “Synthesis of N-(4-fluorobenzyl)-N-(1-methylpiperidin-4-yl)-N′-(4-(2-methylpropyloxy)phenylmethyl)carbamide and its tartrate salt and crystalline forms” (ACADIA Pharmaceuticals, Inc., priority 2004, dated 2010)
Where a name gives a salt, the structure may show the parent alone. Read-outs that look alike come from different tables or passages of the source.

Columns and labels:
[1] = Particle size distribution; type: physicochemical
[2] = Stability test, exposure to humidity (open containers, 60° C., 75% relative humidity); type: physicochemical; conditions: 1 week and 2 weeks
Method: (§1) HPLC: HPLC measurements were carried out with a HP LC1090M, Column Symmetry C18, 3.0·150 mm.
The compounds of Examples 3(b) (polymorph A), 25 (polymorph B), and 36 (polymorph C) were placed in open containers and exposed 1 week and 2 weeks at 60° C. and 75% relative humidity. In polymorph A, a water content of 2.8% was detected and the HPLC purity was 80%.

[3] = Stability test, thermal treatment (sealed ampoules, 100° C., HPLC purity); type: physicochemical; conditions: 1 week
Method: as §1
The compounds of Examples 3(b) (polymorph A), 25 (polymorph B), and 36 (polymorph C) were placed in sealed ampoules and exposed for 1 week to 100° C. […] The products where analyzed by HPLC and the purity was detected to indicate chemical stability via decomposition.

[4] = Water absorption and behaviour on exposure to relative humidity; type: physicochemical
[5] = Stability of the crystal forms (general findings); type: physicochemical
[6] = Stability of crystalline Form C at 60% RH and 25° C.; type: physicochemical; set-up: key to Powder X-Ray Diffraction (PXRD): C = Conforms with Reference; conditions: for Assay (Active Ingredient %) / Individual Related Substances (%) / Moisture, KF (%) / Powder X-Ray Diffraction (PXRD) / Product Appearance / Total Related Substances (%) / Impurity D: 25° C./60% RH
Method: (§2) A first batch of crystalline Form C was exposed to 60% RH (relative humidity) at 25° C. for 12 months and a second batch was exposed to 75% RH at 40° C. for 6 months. No changes in polymorphic purities were observed under all the conditions tested, and Form C was the only polymorph detected. The batches were tested for appearance, Total Drug Assay, Related Substances, moisture, and the presence of Impurity D. Appearance of the bulk drug substance was evaluated by visual inspection for color homogeneity, foreign material and texture. Total Drug Assay was determined on an HPLC system with UV detection at 226 nm. A Waters XTerra RP185 μm (4.6×250 mm) column was used at 30° C. The mobile phase was acetonitrile: 5 mM ammonium acetate, pH 10.0 (46:54 v/v). The injection volume aws 20 μL. The run time was 30 min with a flow rate of 1.0 mL/min. Related Substances were analyzed utilizing gradient reversed-phase HPLC with UV detection at 226 nm. A Waters Symmetry C183.5 μm, (150×4.6 mm) column was used at 35° C. Mobile phase A was water with 0.1% TFA and mobile phase B was acetonitrile with 0.1% TFA. The injection volume was 20 μL. The run time was 35 min with a flow rate of 1.0 mL/min. Related substances were quantitated by peak area percent. Moisture was determined with a 737 Karl Fischer Coulometric titrator. The apparatus was operated using Hydranal-Coulomat AG and Hydranal standard-0.1% water check solution-Coulomat AG.

[7] = Stability of crystalline Form C at 75% RH and 40° C.; type: physicochemical; set-up: key to Powder X-Ray Diffraction (PXRD): C = Conforms with Reference; conditions: 40° C./75% RH
Method: as §2

[8] = Solubility statements in the description
[9] = Approximate solubility of the crystalline free base in solvents at room temperature; type: physicochemical

With `CC(C)COc1ccc(CNC(=O)N(Cc2ccc(F)cc2)C2CCN(C)CC2)cc1` [Example 56, N-(4-fluorobenzyl)-N-(1-methylpiperidin-4-yl)-N′-(4-(2-methylpropyloxy)phenylmethyl)carbamide hemi-tartrate] the “diameter of about 10% of the particles” value [1] was no more than 5 μm, the “diameter of about 50% of the particles” value [1] was no more than 18 μm and the “diameter of about 90% of the particles” value [1] was no more than 35 μm.

In the case of `CC(C)COc1ccc(CNC(=O)N(Cc2ccc(F)cc2)C2CCN(C)CC2)cc1` [Example 60, N-(4-fluorobenzyl)-N-(1-methylpiperidin-4-yl)-N′-(4-(2-methylpropyloxy)phenylmethyl)carbamide tartrate], the “diameter of about 10% of the particles” value [1] was no more than 9 μm, the “diameter of about 50% of the particles” value [1] was no more than 30 μm and the “diameter of about 90% of the particles” value [1] was no more than 55 μm.

For `CC(C)COc1ccc(CNC(=O)N(Cc2ccc(F)cc2)C2CCN(C)CC2)cc1.CC(C)COc1ccc(CNC(=O)N(Cc2ccc(F)cc2)C2CCN(C)CC2)cc1.O=C(O)C(O)C(O)C(=O)O` [Form B, N-(4-fluorobenzyl)-N-(1-methylpiperidin-4-yl)-N′-(4-(2-methylpropyloxy)phenylmethyl)carbamide hemi-tartrate], the “Change of crystal form after exposure to humidity” value [2] was “transformed to polymorph C”, the “HPLC purity after exposure to humidity” value ([2]; listed as polymorph B) was 94.6% and the “water content after exposure to humidity” value ([2]; listed as polymorph B) was 1.9%. For the same compound, the “HPLC purity after thermal treatment” value ([3]; listed as polymorph B) was 28.3%, the “Water uptake when exposed to high humidity” value ([4]; above 80% relative humidity) was “considerable water uptake” and the “Stability under ambient water partial pressures” value ([4]; relative humidities between 20% and 75%) was “sufficient stability”. For the same compound, the “Stability at ambient temperatures” value ([5]; ambient temperatures) was “stable”.

For `CC(C)COc1ccc(CNC(=O)N(Cc2ccc(F)cc2)C2CCN(C)CC2)cc1` [Form C, N-(4-fluorobenzyl)-N-(1-methylpiperidin-4-yl)-N′-(4-(2-methylpropyloxy)phenylmethyl)carbamide hemi-tartrate], the “Assay (Active Ingredient %)” value ([6]; 0 M) was 99.8%, the “Individual Related Substances (%)” value ([6]; 0 M) was 0.06% and the “Moisture, KF (%)” value ([6]; 0 M) was 0.3%. For the same compound, the “Powder X-Ray Diffraction (PXRD)” value ([6]; 0 M) was “C”, the “Product Appearance” value ([6]; 0 M) was “Conforms” and the “Total Related Substances (%)” value ([6]; 0 M) was 0.06%. The “Assay (Active Ingredient %)” value ([6]; 1 M) was 99.8%, the “Individual Related Substances (%)” value ([6]; 1 M) was 0.05% and the “Moisture, KF (%)” value ([6]; 1 M) was less than 0.1%. The “Powder X-Ray Diffraction (PXRD)” value ([6]; 1 M) was “C”, the “Product Appearance” value ([6]; 1 M) was “Conforms” and the “Total Related Substances (%)” value ([6]; 1 M) was 0.05%. The “Assay (Active Ingredient %)” value ([6]; 3 M) was 99.7%, the “Individual Related Substances (%)” value ([6]; 3 M) was less than 0.05% and the “Moisture, KF (%)” value ([6]; 3 M) was less than 0.1%. For the same compound, the “Product Appearance” value ([6]; 3 M) was “Conforms”, the “Total Related Substances (%)” value ([6]; 3 M) was less than 0.05% and the “Assay (Active Ingredient %)” value ([6]; 6 M) was 99.8%. The “Individual Related Substances (%)” value ([6]; 6 M) was 0.06%, the “Moisture, KF (%)” value ([6]; 6 M) was 0.2% and the “Powder X-Ray Diffraction (PXRD)” value ([6]; 6 M) was “C”. For the same compound, the “Product Appearance” value ([6]; 6 M) was “Conforms”, the “Total Related Substances (%)” value ([6]; 6 M) was less than 0.06% and the “Assay (Active Ingredient %)” value ([6]; 9 M) was 99.4%. The “Impurity D” value ([6]; 9 M) was 0.2, the “Individual Related Substances (%)” value ([6]; 9 M) was less than 0.05% and the “Moisture, KF (%)” value ([6]; 9 M) was less than 0.1%. The “Powder X-Ray Diffraction (PXRD)” value ([6]; 9 M) was “C”, the “Product Appearance” value ([6]; 9 M) was “Conforms” and the “Total Related Substances (%)” value ([6]; 9 M) was less than 0.05%. For the same compound, the “Assay (Active Ingredient %)” value ([6]; 12 M) was 99.1%, the “Impurity D” value ([6]; 12 M) was 0.2 and the “Individual Related Substances (%)” value ([6]; 12 M) was 0.05%. The “Moisture, KF (%)” value ([6]; 12 M) was less than 0.1%, the “Powder X-Ray Diffraction (PXRD)” value ([6]; 12 M) was “C” and the “Product Appearance” value ([6]; 12 M) was “Conforms”. For the same compound, the “Total Related Substances (%)” value ([6]; 12 M) was 0.05%, the “Changes in polymorphic purities” value ([6]; 60% RH at 25° C. for 12 months and 75% RH at 40° C. for 6 months) was “No changes” and the “Change of crystal form after exposure to humidity” value [2] was “remained unchanged”. For the same compound, the “HPLC purity after exposure to humidity” value [2] was 99.7%, the “Assay (Active Ingredient %)” value ([7]; 0 M) was 99.8% and the “Individual Related Substances (%)” value ([7]; 0 M) was 0.06%. For the same compound, the “Moisture, KF (%)” value ([7]; 0 M) was 0.3%, the “Powder X-Ray Diffraction (PXRD)” value ([7]; 0 M) was “C” and the “Total Related Substances (%)” value ([7]; 0 M) was 0.06%. The “Assay (Active Ingredient %)” value ([7]; 1 M) was 99.8%, the “Individual Related Substances (%)” value ([7]; 1 M) was 0.05% and the “Moisture, KF (%)” value ([7]; 1 M) was less than 0.1%. For the same compound, the “Powder X-Ray Diffraction (PXRD)” value ([7]; 1 M) was “C”, the “Total Related Substances (%)” value ([7]; 1 M) was 0.05% and the “Assay (Active Ingredient %)” value ([7]; 3 M) was 99.5%. The “Individual Related Substances (%)” value ([7]; 3 M) was less than 0.05%, the “Moisture, KF (%)” value ([7]; 3 M) was less than 0.1% and the “Total Related Substances (%)” value ([7]; 3 M) was less than 0.05%. For the same compound, the “Assay (Active Ingredient %)” value ([7]; 6 M) was 99.7%, the “Individual Related Substances (%)” value ([7]; 6 M) was 0.23% and the “Moisture, KF (%)” value ([7]; 6 M) was 0.1%. The “Powder X-Ray Diffraction (PXRD)” value ([7]; 6 M) was “C”, the “Total Related Substances (%)” value ([7]; 6 M) was 0.23% and the “HPLC purity after thermal treatment” value [3] was 99.7%. For the same compound, the “State of the material after thermal treatment” value [3] was “substantially unchanged”, the “Dynamic pour absorption experiments: water absorption” value [4] was “does not absorb water” and the “Stability in an open container” value ([4]; 75% relative humidity) was “stable”. For the same compound, the Deliquescence or hygroscopicity ([4]; about 95% relative humidity) was “no deliquescence or hygroscopicity”, the Water absorption ([4]; at about 95% relative humidity) was “about 1%” and the “Stability compared with all found crystal forms” value [5] was “most stable form”. For the same compound, the aqueous solubility ([8]; depends on the pH in aqueous environments) was 50 to 100 mg/mL and the “Solubility in water or aqueous systems (in words)” value (shortened to “Solubility … (in words)”) [8] was “very high”.

With `CC(C)COc1ccc(CNC(=O)N(Cc2ccc(F)cc2)C2CCN(C)CC2)cc1` [Form D, N-(4-fluorobenzyl)-N-(1-methylpiperidin-4-yl)-N′-(4-(2-methylpropyloxy)phenylmethyl)carbamide hemi-tartrate] the “Stability in an open container” value ([4]; 53% relative humidity) was “stable”.

Compound `CC(C)COc1ccc(CNC(=O)N(Cc2ccc(F)cc2)C2CCN(C)CC2)cc1` [crystalline free base of formula I, N-(4-fluorobenzyl)-N-(1-methylpiperidin-4-yl)-N′-(4-(2-methylpropyloxy)phenylmethyl)carbamide] has a solubility ([9]; acetonitrile) of less than 50 mg/mL, a solubility ([9]; ethyl acetate) of less than 30 mg/mL and a solubility ([9]; organic solvent or mixture, 1,4-dioxane, read-out: Solubility) of 140 mg/mL. The solubility ([9]; organic solvent or mixture, acetone, read-out: Solubility) was 100 mg/mL, the solubility ([9]; organic solvent or mixture, dichloromethane, read-out: Solubility) was greater than 500 mg/mL and the solubility ([9]; organic solvent or mixture, ethanol, read-out: Solubility) was 260 mg/mL. The solubility ([9]; organic solvent or mixture, isopropanol, read-out: Solubility) was 100 mg/mL, the solubility ([9]; organic solvent or mixture, methanol, read-out: Solubility) was 170 mg/mL and the solubility ([9]; organic solvent or mixture, tetrahydrofuran, read-out: Solubility) was greater than 250 mg/mL. For the same compound, the solubility ([9]; toluene) was less than 70 mg/mL and the solubility ([9]; water, read-out: Solubility) was less than 4 mg/mL.

For `CC(C)COc1ccc(CNC(=O)N(Cc2ccc(F)cc2)C2CCN(C)CC2)cc1` [formula I, N-(4-fluorobenzyl)-N-(1-methylpiperidin-4-yl)-N′-(4-(2-methylpropyloxy)phenylmethyl)carbamide], the “Solubility … (in words)” value [8] was “low solubility”.

For `CC(C)COc1ccc(CNC(=O)N(Cc2ccc(F)cc2)C2CCN(C)CC2)cc1` [formula IV, N-(4-fluorobenzyl)-N-(1-methylpiperidin-4-yl)-N′-(4-(2-methylpropyloxy)phenylmethyl)carbamide hemi-tartrate], the “Solubility … (in words)” value [8] was “very good solubility”.
